This note sets out measurements from PMC3499368, “Evolution of Minimal Specificity and Promiscuity in Steroid Hormone Receptors” (PLoS Genetics, 2012).

Read-outs that look alike come from different tables or passages of the source.

One assay has as its system AncSR2. The assay can be described thus: luciferase reporter assay, inhibition of AncSR2 in the presence of EC80 11-deoxycorticosterone. The following applies: in the presence of EC80 11-deoxycorticosterone (1.7 nM).
The next assay concerns AncSR1. The experiment in a line: luciferase reporter assay, inhibition of AncSR1 in the presence of estradiol. It counts as cell-based. The following applies: with estradiol. A general note: A reporter such as luciferase makes a cellular process visible.
The next assay has as its system AncSR1-LBD. The assay can be described thus: luciferase reporter gene assay, Gal4-DBD fusion of AncSR1-LBD in CHO-K1 cells, activation. It counts as cell-based. The following applies: for activation (in words): fold activation at 10^-6 M, Fig. S5C. The text has this:
To experimentally test these hypotheses, we synthesized cDNAs for the AncSR1 and AncSR2 LBD protein sequences, expressed them as Gal4-DBD fusion constructs, and characterized their sensitivity to hormones using luciferase reporter gene assays.

In assay [1] the target is T1, estrogen receptor ligand binding domain (Platynereis dumerilii, UniProt C0IR13).
T1 sequence (C0IR13 197-482): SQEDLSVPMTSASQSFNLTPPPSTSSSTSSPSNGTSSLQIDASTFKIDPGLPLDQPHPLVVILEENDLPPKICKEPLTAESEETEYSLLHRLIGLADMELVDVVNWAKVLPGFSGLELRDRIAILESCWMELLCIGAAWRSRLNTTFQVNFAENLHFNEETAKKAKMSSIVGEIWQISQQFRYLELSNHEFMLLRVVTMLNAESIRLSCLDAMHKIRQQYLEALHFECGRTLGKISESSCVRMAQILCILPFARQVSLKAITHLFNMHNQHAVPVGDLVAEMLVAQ
The assay can be described thus: activation of the estrogen receptor ligand binding domain of Platynereis dumerilii.
Description: (§4) Fig. S8 Activation of the estrogen receptor ligand binding domains of two annelids (Capitella capitata, a polychaete worm &
(§5) Values adjacent to the hormone legends (red squares and black triangles) indicate the EC50 value for

Assay [2] addresses T2, estrogen receptor ligand binding domain (Capitella capitata, UniProt C0IRV2).
T2 sequence (C0IRV2 151-381): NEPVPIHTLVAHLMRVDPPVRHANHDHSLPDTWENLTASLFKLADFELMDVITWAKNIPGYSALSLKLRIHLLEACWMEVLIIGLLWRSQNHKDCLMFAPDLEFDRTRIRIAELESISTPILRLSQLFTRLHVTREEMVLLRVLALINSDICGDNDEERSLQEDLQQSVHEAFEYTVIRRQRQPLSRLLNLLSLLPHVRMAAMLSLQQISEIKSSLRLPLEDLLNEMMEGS
The assay can be described thus: activation of the estrogen receptor ligand binding domain of Capitella capitata.
Description: as §4, §5

Another assay concerns AncSR2-LBD. The assay can be described thus: luciferase reporter gene assay, Gal4-DBD fusion of AncSR2-LBD in CHO-K1 cells, activation. It counts as cell-based. The note with it: for EC50: AncSR2, representative dose activation curves (Fig. S4) and Table S5 sections c-i. From the text:
To experimentally test these hypotheses, we synthesized cDNAs for the AncSR1 and AncSR2 LBD protein sequences, expressed them as Gal4-DBD fusion constructs, and characterized their sensitivity to hormones using luciferase reporter gene assays. […] It was unresponsive to a broad array of androgens, progestagens, and corticosteroids, as well as cholesterol (Figure 2A, Figure S3).
For AncSR2, we identified all plausible alternate reconstructions (those with posterior probability >0.20 excluding biochemically similar K/R, D/E, S/T, and I/L differences) and introduced each alternate state individually into the AncSR2 background using the Quikchange Mutagenesis kit (Stratagene), verified clones by sequencing, and repeated the activation assays with each version of AncSR2 (Figure S6). The ML AncSR2 sequence reconstructed on the ML tree had high baseline activation in the absence of ligand; this phenotype is almost certainly an artifact, because constitutive baseline activity is not present in any of AncSR2's extant descendants; it is well-established that some amino acid replacements can cause nuclear receptors to become constitutive by marginally stabilizing the active conformation in the absence of hormone. […] The “constitutive” Leu79 state is weakly supported on the ML tree (PP = 0.59), and has no support (PP = 0.00) on the phylogeny that is most parsimonious in terms of gene duplications and losses; in contrast, the “non-constitutive” state Met79 has PP = 0.41 on the ML tree and PP = 1.00 on the rearranged gene duplication/loss tree (Figure S12, Table S8). The AncSR2 sequence used for all experiments reported in the text therefore contains state Met79. The other alternate reconstructions were then reintroduced into this AncSR2 sequence: none qualitatively changed the receptor's sensitivity to the various classes of steroid hormones, except for A171V, which conferred constitutive activity (Figure S6).

The target in assay [3] is T3, human estrogen receptor alpha (hERα) (Homo sapiens, UniProt P03372).
T3 sequence (P03372 311-595 limits assumed): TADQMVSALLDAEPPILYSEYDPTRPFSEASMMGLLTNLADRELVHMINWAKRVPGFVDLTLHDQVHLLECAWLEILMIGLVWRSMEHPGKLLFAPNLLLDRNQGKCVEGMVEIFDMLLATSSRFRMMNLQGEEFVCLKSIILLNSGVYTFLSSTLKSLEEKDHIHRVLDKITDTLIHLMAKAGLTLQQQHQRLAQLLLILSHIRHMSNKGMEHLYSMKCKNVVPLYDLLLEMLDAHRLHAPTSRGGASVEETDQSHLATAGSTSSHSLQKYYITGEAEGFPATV
The assay can be described thus: luciferase reporter assay, human ERα LBD. It counts as cell-based. The following applies: Fig. S8.

The target in assay [4] is T4, human mineralocorticoid receptor (hMR) (Homo sapiens, UniProt P08235).
T4 sequence (P08235 736-984): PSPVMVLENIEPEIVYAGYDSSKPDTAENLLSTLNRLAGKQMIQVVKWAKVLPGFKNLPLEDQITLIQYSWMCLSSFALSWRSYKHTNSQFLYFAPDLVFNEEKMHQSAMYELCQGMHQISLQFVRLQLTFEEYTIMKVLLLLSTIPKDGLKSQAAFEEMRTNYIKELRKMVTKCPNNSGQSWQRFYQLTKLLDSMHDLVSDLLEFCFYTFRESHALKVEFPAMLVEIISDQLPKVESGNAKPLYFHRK
The experiment in a line: luciferase reporter assay, human MR LBD. It counts as cell-based.

The next assay has as its system AncSR1_Alt2. The experiment in a line: luciferase reporter assay, alternative reconstruction AncSR1_Alt2. It counts as cell-based. The following applies: for activation (in words): Alt2, fold activation at 10^-6 M, Fig. S5C. The text has this: (§1) To determine the robustness of functional inferences to statistical uncertainty in the reconstruction of AncSR1 and AncSR2, we used two approaches. AncSR1 had too many ambiguously reconstructed sites to examine each such residue individually, so we computationally sampled from the posterior probability distribution of reconstructed amino acid states to generate a cloud of possible ancestral sequences, each harboring a large number of alternate states. Specifically, we generated 1,000,000 possible ancestral sequences by sampling from the posterior probability distribution of states at each site. […] We synthesized these five radically alternative ancestral reconstructions de novo and repeated the functional assays.
(§2) A) Distribution of posterior probabilities of 1 million protein sequences assembled by sampling amino acid states at each site from the posterior probability distribution for AncSR1 LBD. The ML reconstruction (AncSR1-ML) and the five alternative sequences with the highest posterior probability (Alt1-Alt5) in the 1 million samples are […]
(§3) The column height and error bars indicate the mean and SEM of three independent experiments, respectively. […]

The next assay has as its system AncSR1_Alt4. The assay can be described thus: luciferase reporter assay, alternative reconstruction AncSR1_Alt4. The following applies: for activation (in words): Alt4, fold activation at 10^-6 M, Fig. S5C. It counts as cell-based.
Description: as §1, §2, §3

For a further assay, the system named is AncSR1_Alt5. The experiment in a line: luciferase reporter assay, alternative reconstruction AncSR1_Alt5. The following applies: for activation (in words): Alt5, fold activation at 10^-6 M, Fig. S5C. It counts as cell-based.
Description: as §1, §2, §3

The next assay has as its system AncSR1_Alt1. The assay can be described thus: luciferase reporter assay, alternative reconstruction AncSR1_Alt1. It counts as cell-based. The note with it: for activation (in words): Alt1, fold activation at 10^-6 M, Fig. S5C.
Description: as §1, §2, §3

In a further assay the test system is AncSR1_Alt3. The assay can be described thus: luciferase reporter assay, alternative reconstruction AncSR1_Alt3. It counts as cell-based. The note with it: for activation (in words): Alt3, fold activation at 10^-6 M, Fig. S5C.
Description: as §1, §2, §3

Setting [5] is: AncSR1, representative dose activation curves (Fig. S3) and Table S5 section b.
Setting [6] is: AncSR2, Table S5 section c, pairs H1/H2: 23/8, 19/18, listed as given under Hormone 1.
Where [7] appears, read: AncSR2, Table S5 section d, pairs H1/H2: 13/6, 17/8, 15/9, 16/10, 19/23, listed as given under Hormone 1.

As to `CC/C(=C(\c1ccc(O)cc1)c1ccc(OCCN(C)C)cc1)c1ccccc1` [4-hydroxytamoxifen, 4-Hydroxytamoxifen], the “inhibition of AncSR2 (in words)” value in the assay on AncSR2 is on record as “not inhibited”. Further, the “inhibition of AncSR1 (in words)” value in the assay on AncSR1 is recorded as “competitively inhibited”.

As to `C[C@]12CC[C@@H]3c4ccc(O)cc4C[C@@H](CCCCCCCCC[S+]([O-])CCCC(F)(F)C(F)(F)F)[C@H]3[C@@H]1CC[C@@H]2O` (some centres unmarked) [ICI 182,780, fulvestrant], the “inhibition of AncSR2 (in words)” value in the assay with AncSR2 was “not inhibited”. Besides, the “inhibition of AncSR1 (in words)” value with AncSR1 is reported as “competitively inhibited”.

Consider `CC(=O)[C@H]1CCC2C3CCc4cc(O)ccc4C3CC[C@@]21C` (some centres unmarked) [NPT, 19-nor-1,3, 5(10)-pregnatriene-3-ol-20-one], for which the EC50 (usually the concentration needed to bring the measured effect to its halfway point) in the assay on AncSR1-LBD (setting [5]) amounted to 179 nM; in [1], 1.2 nM; in assay [2], 8.7 nM; with AncSR2-LBD it was 182 nM; in assay [3], 5.4 nM. Also, the “activation of AncSR1 (in words)” value with AncSR1-LBD (luciferase reporter) is listed as “almost as potent an AncSR1 activator as endogenous estrogens”. In addition, in the assay with AncSR2-LBD (setting [6]), the “Ratio H1/H2 of EC50, preference for non-aromatized A-ring” value is recorded as 113.75. For the same compound, in the assay with AncSR2-LBD (setting [6]), the “Ratio H2/H1 of EC50, preference for non-aromatized A-ring” value was 0.01.

As for `C[C@]12CCC(=O)C=C1CC[C@@H]1[C@@H]2[C@@H](O)C[C@@]2(C)[C@H]1CC[C@]2(O)C(=O)CO` [cortisol], the EC50 in assay [4] came out at 37 nM; in the assay on AncSR2-LBD (read-out: EC50), 9.8 nM.

For the compound `C[C@]12CC[C@@H]3c4ccc(O)cc4CC[C@H]3[C@@H]1CC[C@@H]2O` [estradiol], the concentration giving a half-maximal response (EC50) in the assay with AncSR1_Alt2 (Alt2, Fig. S5B) turned out to be 350 nM; in the assay on AncSR1-LBD (setting [5]) it was 49 nM; with AncSR1-LBD (AncSR1-ML, Fig. S5B), 66 nM; in the assay on AncSR1_Alt4 (Alt4, Fig. S5B), 316 nM; in assay [1] it was 12 nM; with AncSR1_Alt5 (Alt5, Fig. S5B), 94 nM. Moreover, the concentration giving a half-maximal response (EC50) with AncSR1_Alt1 (Alt1, Fig. S5B) is 50 nM; in [2], 8.6 nM; with AncSR2-LBD (read-out: EC50) it was greater than 10000 nM; in the assay on AncSR1_Alt3 (Alt3, Fig. S5B), 12 nM. Further, in the assay on AncSR1-LBD (AncSR1, estradiol concentration used in inhibition assay), the EC80 (in general, the concentration needed for an effect of 80%) is 200 nM.

Regarding `CC(=O)[C@H]1CC[C@H]2[C@@H]3CCC4=CC(=O)CC[C@]4(C)[C@H]3CC[C@]12C` [progesterone], the “activation (in words)” value in the assay on AncSR1_Alt2, in the assay on AncSR1-LBD (AncSR1-ML), in the assay with AncSR1_Alt4, in the assay with AncSR1_Alt5, in the assay on AncSR1_Alt1 and with AncSR1_Alt3 was “none are activated” in each case. For the same compound, the EC50 in the assay on AncSR2-LBD (read-out: EC50) is 5.5 nM.

In the case of `C[C@]12CC[C@H]3[C@@H](CCC4=CC(=O)CC[C@@]43C)[C@@H]1CC[C@@H]2O` [testosterone], the “activation (in words)” value in the assay on AncSR1_Alt2, in the assay with AncSR1-LBD (AncSR1-ML), in the assay with AncSR1_Alt4, in the assay with AncSR1_Alt5, in the assay with AncSR1_Alt1 and with AncSR1_Alt3 was “none are activated” each time. In the assay on AncSR2-LBD (setting [7]), the “Ratio H1/H2 of EC50, preference for 17-acetyl vs. 17-hydroxy group” value worked out at 21.09. Moreover, the “Ratio H2/H1 of EC50, preference for 17-acetyl vs. 17-hydroxy group” value with AncSR2-LBD (setting [7]) came out at 0.05. Moreover, the EC50 in the assay with AncSR2-LBD amounted to 116 nM.
